Reference: ChEMBL document CHEMBL1944572, “High-affinity fluorescent ligands for the 5-HT(3) receptor” (Bioorg Med Chem Lett, 2012)
Activity calls are given as the source filed them. The calls are words filed in the database; no cut-off is given here.

Key:
Format in all cases: cell-based
[1] = biological target: T1, 5-hydroxytryptamine receptor 3A (Homo sapiens) (UniProt P46098); experiment: Binding affinity to human 5HT3A expressed in COS7 cells at 100 nM after 1 hr by fluorescence microscopy in presence of 10 uM ondansetron; conditions: COS-7
T1 sequence (whole entry): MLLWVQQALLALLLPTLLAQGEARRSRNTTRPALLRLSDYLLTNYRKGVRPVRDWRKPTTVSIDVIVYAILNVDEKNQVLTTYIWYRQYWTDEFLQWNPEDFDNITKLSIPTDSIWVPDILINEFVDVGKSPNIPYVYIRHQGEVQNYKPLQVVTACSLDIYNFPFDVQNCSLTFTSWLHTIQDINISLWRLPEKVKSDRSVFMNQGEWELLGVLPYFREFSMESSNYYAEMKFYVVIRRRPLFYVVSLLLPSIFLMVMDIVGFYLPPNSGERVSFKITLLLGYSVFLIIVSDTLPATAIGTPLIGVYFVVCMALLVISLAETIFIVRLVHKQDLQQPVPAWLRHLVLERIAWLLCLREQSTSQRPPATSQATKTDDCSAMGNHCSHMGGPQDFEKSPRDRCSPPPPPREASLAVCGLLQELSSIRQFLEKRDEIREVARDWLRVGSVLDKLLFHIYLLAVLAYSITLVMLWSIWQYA

[2] = biological target: T1, 5-hydroxytryptamine receptor 3A (Homo sapiens); experiment: Binding affinity to human 5HT3A expressed in COS7 cells at 100 nM after 1 hr by fluorescence microscopy; conditions: COS-7
[3] = biological target: T2, 5-hydroxytryptamine receptor 3A (Homo sapiens, UniProt P46098); experiment: Displacement of [3H]granisetron from human 5HT3A expressed in HEK293 cells after 1 hr by scintillation counting
T2 sequence (P46098 whole entry): T1 sequence (whole entry)

Row | Compound | Activity [1] | Activity [2] | Ki [3]
1 | CC1=CC(C)=[N+]2C1=C(CCCOC(=O)CCCn1nc(C(=O)N[C@@H]3C[C@H]4CCC[C@@H](C3)N4C)c3ccccc31)c1c(C)cc(C)n1[B-]2(F)F | Active | Active | –
2 | CCN(CC)c1ccc2cc(C(=O)NCCCCn3nc(C(=O)N[C@@H]4C[C@H]5CCC[C@@H](C4)N5C)c4ccccc43)c(=O)oc2c1 | – | inactive | –
3 | CN1[C@@H]2CCC[C@H]1C[C@H](NC(=O)c1nn(CCCCNc3ccc([N+](=O)[O-])c4nonc34)c3ccccc13)C2 | – | – | Not Active
4 | CCN(CC)c1ccc2cc(C(=O)NCCOc3cccc4c(C(=O)N[C@@H]5C[C@H]6CCC[C@@H](C5)N6C)nn(C)c34)c(=O)oc2c1 | – | inactive | –

Now from value to compound, other results behind:

Row | Activity [1] | Activity [2] | Compound | Ki [3]
5 | inactive | Active | CN1[C@@H]2CCC[C@H]1C[C@H](NC(=O)c1nn(CCCNC(=S)Nc3ccc(-c4c5ccc(=O)cc-5oc5cc(O)ccc45)c(C(=O)O)c3)c3ccccc13)C2 | –
6 | – | inactive | CN1[C@@H]2CCC[C@H]1C[C@H](NC(=O)c1nn(CCCNc3ccc([N+](=O)[O-])c4nonc34)c3ccccc13)C2 | –
7 | – | inactive | CN(C)c1cccc2c(S(=O)(=O)NCCCn3nc(C(=O)N[C@H]4C[C@H]5CCC[C@@H](C4)N5C)c4ccccc43)cccc12 | –
8 | inactive | Active | CN1[C@@H]2CCC[C@H]1C[C@H](NC(=O)c1nn(CCCCNC(=S)Nc3ccc(-c4c5ccc(=O)cc-5oc5cc(O)ccc45)c(C(=O)O)c3)c3ccccc13)C2 | –
